Laboratory results reported in patent US20150307508A1, “Application of an alkaloid derived from a Chinese herbal for treatment of cancer by inhibiting cholesterol synthesis and fatty acid oxidation” (Macau University of Science and Technology, priority 2014, published 2015).
“And” between values parts separate entries of the source, which are not always exact repeats. Identical values can stand only once.

Key:
H1975 (EGFR^L858R+T790M) = experiment: MTT cytotoxicity assay, H1975; type: cell-based; conditions: Homo sapiens, NCI-H1975, H1975, 72 hrs, read-out: IC50 value after 72 hrs of treatment
From the text: (§1) This example described the BBR-induced cytotoxicity effect in six NSCLC cell lines utilizing MTT cytotoxicity assay. A549 is wild type EGFR and BEAS-2B is normal lung epithelial cells.

[1] = test system: H1650 (EGFR^Exon19 deletion); experiment: MTT cytotoxicity assay, H1650; type: cell-based; conditions: Homo sapiens, NCI-H1650, H1650, 72 hrs, read-out: IC50 value after 72 hrs of treatment
From the text: as §1

H1819 [2] = experiment: MTT cytotoxicity assay, H1819; type: cell-based; conditions: Homo sapiens, NCI-H1819, H1819, 72 hrs, read-out: IC50 value after 72 hrs of treatment
From the text: as §1

HCC827 = experiment: MTT cytotoxicity assay, HCC827; type: cell-based; conditions: Homo sapiens, HCC827, 72 hrs, read-out: IC50 value after 72 hrs of treatment
From the text: as §1

A549 (EGFR^Wild type) = experiment: MTT cytotoxicity assay, A549; type: cell-based; conditions: Homo sapiens, A549, 72 hrs, read-out: IC50 value after 72 hrs of treatment
From the text: as §1

[3] = test system: BEAS-2B (Normal lung epithelial cell); experiment: MTT cytotoxicity assay, BEAS-2B; type: cell-based; conditions: Homo sapiens, 72 hrs, read-out: IC50 value after 72 hrs of treatment
From the text: as §1

H1650 cells [4] = experiment: Cell cycle analysis of H1650; type: cell-based, human; conditions: 72 hrs
From the text: (§2) The anticancer effect of berberine against two most BBR sensitive cell lines are further studied in Example 8, namely H1975 (EGFR^L858R+T790M) and H1650 (EGFR^Exon19 deletion).

H1975 cells [5] = experiment: Cell cycle analysis of H1975; type: cell-based, human; conditions: 72 hrs
From the text: as §2

CCNB1 = experiment: Western blot analysis of CCNB1 protein level in H1975 cells; type: cell-based, human; conditions: 72 hrs
CCND1 = experiment: Western blot analysis of CCND1 protein level in H1975 cells; type: cell-based, human; conditions: 72 hrs
CPT1C = experiment: Real-time PCR analysis of CPT1C RNA expression; type: cell-based, human; conditions: 24 hrs
Description: (§3) The RNA expression levels of CPT1C and SREBP1 in both H1975 and H1650 cell lines after being treated with 10 μM BBR for 24 hrs were analyzed by Real-time PCR analysis and Western blot analysis, as shown in FIGS. 2A-2D.

SREBP1 = experiment: Real-time PCR analysis of SREBP1 RNA expression; type: cell-based, human; conditions: 24 hrs
Description: as §3

H1975 cells [6] = experiment: Thin-layer chromatography of total cellular lipid, H1975; type: cell-based, human; conditions: H1975, 5 μM, 72 hours
Description: (§4) Cells were scraped from culture dish and resuspended in 2 ml PBS containing 1× protease inhibitor and 1 mM PMSF. Total cellular lipid was extracted by adding 4 ml chloroform/methanol (2:1). The mixture was vortexed for 1 min and centrifuged at 1500 g×5 min. The organic phase was collected and another 2.5 ml choloroform was added to the residual aqueous phase; the mixture was vortexted and centrifuged at 1500 g×5 min again. The organic phase was collected together with the previous extraction. Thin layer chromatography (TLC) was performed by spotting of the cellular total lipid extract to a 5×10 cm silica gel aluminum sheet and developed with hexane/diethyl ether/acetic acid (80:20:2). Lipids were visualized with iodine vapor and imaged using a desktop scanner
(§5) The overall lipid levels in H1975 and H1650 treated by Berberine were studied in this example. H1975 and H1650 cells were treated with 5 μM BBR for 72 hours and then total cellular lipid was extracted.

H1650 cells [7] = experiment: Thin-layer chromatography of total cellular lipid, H1650; type: cell-based, human; conditions: H1650, 5 μM, 72 hours
Description: as §4, §5

H1975 = conditions: cited from earlier work
H1650 = conditions: cited from earlier work
H1819 [8] = conditions: cited from earlier work
[9] = test system: BEAS-2B (Normal lung epithelial cell); conditions: cited from earlier work

## COc1ccc2cc3[n+](cc2c1OC)CCc1cc2c(cc1-3)OCO2 [BBR, berberine]
H1975 (EGFR^L858R+T790M)
  IC50: 2.92 ± 0.49 µM
[1]
  IC50: 6 ± 2.78 µM
H1819 [2]
  IC50: 6.51 ± 2.09 µM
HCC827
  IC50: 8.9 ± 4.4 µM
A549 (EGFR^Wild type)
  IC50: 11.2 ± 3.98 µM
[3]
  IC50: 24.7 ± 12.4 µM
H1650 cells [4]; H1650, 5 μM
  decrease of percentage of G0/G1 phase vs control: 21.1%
H1650 cells [4]; H1650, 10 μM
  decrease of percentage of G0/G1 phase vs control: 18.3%
H1975 cells [5]; H1975, 5 μM
  decrease of percentage of G0/G1 phase vs control: 11.5%
  increase of G2 phase vs control: 11%
H1975 cells [5]; H1975, 10 μM
  decrease of percentage of G0/G1 phase vs control: 14%
  increase of G2 phase vs control: 15.73% and 15.7%
CCNB1
  protein level of CCNB1 (Western blot): down-regulated
CCND1
  protein level of CCND1 (Western blot): down-regulated
CPT1C; H1650, 10 μM
  increase of RNA expression level of CPT1C vs vehicle control: 5.92 times
CPT1C; H1975, 10 μM
  increase of RNA expression level of CPT1C vs vehicle control: 2.005 times
SREBP1; H1650, 10 μM
  decrease of RNA expression level of SREBP1 vs vehicle control: 2.64 times
SREBP1; H1975, 10 μM
  decrease of RNA expression level of SREBP1 vs vehicle control: 9.23 times
H1975 cells [6]
  overall lipid levels (TLC): lower the overall lipid levels
H1650 cells [7]
  overall lipid levels (TLC): lower the overall lipid levels

## COc1cc2ncnc(Nc3ccc(F)c(Cl)c3)c2cc1OCCCN1CCOCC1 [Gefitinib]
H1975
  Gefitinib Sensitivity: Resistant
H1650
  Gefitinib Sensitivity: Resistant
H1819 [8]
  Gefitinib Sensitivity: Moderately sensitive
[9]
  Gefitinib Sensitivity: Resistant
